We go through two substances from patent publication US6342368B1, “WD-40-derived peptides and uses thereof” (The Board of Trustees of the Leland Stanford Junior …, priority 1994, dated 2002).

The subject of assay [1] is PKC binding to recombinant RACK1. Kind of assay: Overlay / overlay-extraction assay: inhibition of PKC binding to recombinant RACK1 by peptides. More on the design: species or system rat. On the procedure:
The variation in the overlay protocol consisted of incubating the putative binding peptides with a mixture of PKC isozymes for 15 minutes at room temperature before the mixture was used to contact the nitrocellulose strips containing immobilized RACK1.
Nitrocellulose strips containing immobilized RACK1, that had been contacted with a solution containing a mixture of PKC isozymes, were washed and the area corresponding to the 36 kDa (RACK1-containing) band was cut out. The pieces (containing PKC/RACK1 complexes) were incubated with sample buffer for 10 minutes at 80° C. The sample buffer and the nitrocellulose pieces were then placed in wells in the PAGE gel and subjected to SDS-PAGE to elute the bound proteins. The gel was blotted onto nitrocellulose and a Western blot analysis was carried out using the mixture of antibodies (specific for PKC α, β, γ, δ, ε and ζ isozymes) described in Example 1 part B. Bound antibodies were detected by ^125I-protein A.
Peptides derived from or homologous to WD-40 repeats of RACK1 were tested for their ability to inhibit PKC binding to recombinant RACK1. Binding of PKC to RACK1 was carried out using a variation of the overlay procedure described in Example 3 part B. In the experimental samples, peptides were incubated with a solution containing a mixture of rat brain PKC isozymes (˜10 nM each) for 15 minutes at room temperature.
Following completion of the modified overlay protocol, the samples were subjected to the overlay-extraction protocol detailed in part B, above.
The results in FIG. 3 show the binding of PKC to RACK1, carried out without (lane 1) or with (lanes 2-4) a preincubation of peptides with PKC. […] Peptide I caused an 81±6% inhibition of PKC binding to recombinant RACK1 as compared with binding in the absence of added peptide (n=3). Lanes 3 and 4 show PKC binding following a preincubation with 10 μM peptide rIII (SEQ ID NO:4) and 10 μM peptide rVI (SEQ ID NO:7), respectively. […] The results shown are representative of three independent experiments.

The next assay deals with Xenopus oocytes. Kind of assay: PKC-mediated Xenopus oocyte maturation (germinal vesicle breakdown, GVBD) after peptide microinjection. It is filed as cell-based. The conditions noted are these: for plateau % GVBD (fraction of oocytes reaching maturation) following insulin exposure: peptide 50 μM, 50 nl microinjected, 20 h time course. The procedure: Exposure to insulin induces maturation in Xenopus oocytes via a PKC-dependent pathway (Smith, et al., 1992). The maturation response may be quantified by monitoring the appearance of a white spot in the animal hemisphere of the oocyte, indicating germinal vesicle breakdown (GVBD) and maturation. To assess the effects of RACK1 WD-40-derived peptides on insulin-induced PKC-mediated maturation, 50 nl of a 20 mM NaCl solution containing the indicated peptides [peptide I (SEQ ID NO:1; ●), peptide rVI (SEQ ID NO:7; ▪), or injection solution (□)] (peptides at 50 μM) were microinjected into Xenopus oocytes. […] One hour following the peptide injections, the oocytes were exposed to a solution containing insulin (8.25 μg/ml) for 2 minutes (t=0). 10-15 oocytes were used for each sample.
The data, representative of three independent experiments, are expressed as the percent of oocytes with GVBD following insulin exposure and are plotted as a function of time in FIG. 5.

Another assay relates to PKC. Kind of assay: PKC autophosphorylation. To be noted: peptide 10 μM; absence of PKC activators. The format is biochemical, rat. On the procedure: Rat brain PKC (˜10 nM) was incubated with mild agitation in a final volume of 250 μl of overlay buffer, as in Example 1 either with anti-βPKC pseudosubstrate antibodies (1:10 dilution, Life Technologies, Gaithersburg, Md.) or with the indicated peptide (10 μM). Where indicated, PS (50 μg/ml), DG (0.8 μg/ml) and CaCl2 (1 mM) were also added. The amount of autophosphorylation was determined after 2 hours for the reaction with the anti-pseudosubstrate antibodies, or after 15 minutes for the other samples. 50 μl of a buffer comprised of 20 mM Tris-HCl (pH 7.5), 20 mM MgCl2, 20 μM ATP and 5 μci/ml [γ-^32P]ATP. The mixture was incubated for 15 minutes at room temperature and the reaction was stopped by adding 60 μl sample buffer (see Example 9). The samples were then boiled for 10 minutes, loaded onto a 10% SDS-PAGE mini gel and electrophoresed. The gel was fixed with 50% methanol and 10% acetic acid for 1 hour, and the autophosphorylation of PKC was determined by autoradiography.
The results in FIG. 8 show PKC autophosphorylation in the presence of DG, PS, and calcium (lane 1), in the presence of EGTA (lane 2), in the presence of anti-βPKC pseudosubstrate antibodies (diluted 1:10 in 20 mM Tris-HCl; lane 3), in the presence of peptide rVI (SEQ ID NO:7; 10 μM; lane 4), in the presence of peptide I (SEQ ID NO:1; 10 μM; lane 5), or in the presence of control peptide (SEQ ID NO:9; 10 μM; lane 6).

Setting [2] is: peptide 50 μM microinjected, insulin 8.25 μg/ml.

Several values for one entry are separate records, joined by “and”; a condition that tells them apart may be missing. Equal entries are not always repeated. Entries after “also recorded” stand apart in the source; their conditions may differ. Bounds are passed on as bounds.

Take “peptide I: 15-residue peptide homologous to a sequence in the sixth WD-40 repeat of RACK1; PKC antagonist (KGDYEKILVALCGGN)”: the “inhibition of PKC binding to recombinant RACK1 as compared with binding in the absence of added peptide” value in assay [1] (10 μM peptide preincubated with PKC isozyme mixture 15 min, n=3) is 81±6%. Also, the “plateau % GVBD (fraction of oocytes reaching maturation) following insulin exposure” value with Xenopus oocytes (insulin 8.25 μg/ml) is listed as 45-50%. In addition, in the assay on PKC, the “induction of PKC autophosphorylation (in words)” value was “No autophosphorylation; also recorded: Neither peptide I nor control peptide induced PKC autophosphorylation”.
With “peptide rVI: eight amino acid peptide identical to a segment of RACK1 WD-40 repeat VI (DIINALCF)”, in assay [1] (10 μM peptide preincubated with PKC), the “inhibition of PKC binding to RACK1 (in words)” value is reported as “inhibit the binding of PKC to RACK1”. Moreover, in the assay with Xenopus oocytes (setting [2]), the “delay to onset of maturation after exposure to insulin” value is 3 to 4 h and the “time to reach GVBD plateau after insulin exposure” value was not above 5 h. The “plateau % GVBD (fraction of oocytes reaching maturation) following insulin exposure” value in the assay with Xenopus oocytes (insulin 8.25 μg/ml) was ~100% and 95-100%. Also, in the assay on Xenopus oocytes (peptide microinjected, insulin), the “effect on insulin-induced oocyte maturation (in words)” value is on record as “potentiates the effects of insulin on oocyte maturation”. Besides, the “PKC autophosphorylation relative to that with optimal PS, DG and calcium” value in the assay on PKC is “over 80%”.
